Reference: patent US20250154165A1, “MULTIANTENNARY GLYCOLIPID MIMETICS” (CONSEJO SUPERIOR DE INVESTIGACIONES CIENTÍFICAS (CSIC), priority 2021, published 2025)

Experiments:
[1] = test system: glycosidases of human fibroblast lysates; experiment: Stability of the glycosidic linkage to glycosidases upon incubation with human fibroblast lysates; format: in vitro ADME; settings: 4 h, 37° C., compound solution 200 μM, 0.1 M citrate buffer pH 4.5
Protocol: The stability of the glyosidic linkage in compounds 2, 4, 6, 8, 10, 12, 14, 16, 18, 20, 22, 23, 25, 27 and 29, selected as representative examples, upon incubation with human fibroblast lysates for 4 h was checked. For such purpose, cells were scraped into ice-cold H2O (10^6 cells mL^−1) and lysed by sonication. Insoluble materials were removed by centrifugation at 15,000 rpm for 5 min and protein concentrations were determined with Protein Assay Rapid Kit (WAKO, Tokyo, Japan). 10 μL of the lysates in 0.1% Triton X-100 in distilled water were incubated at 37° C. with 20 μL of the compound solution (200 μM) in 0.1 M citrate buffer, pH 4.5. In control experiments, the activity of several lysosomas glycosidases was confirmed using fluorescent substrates. The substrates were 4-methylumbelliferone (4-MU)-conjugated β-D-glucopyranoside (for GCase), α-D-glucopyranoside (for α-glucosidase), α-D-galactopyranoside (for α-Galase) and β-D-galactopyranoside (for β-galactosidase). The liberated 4-methylumbelliferone was measured in the black-well plate with a Perkin Elmer Luminescence Spectrometer (excitation wavelength: 340 nm; emission: 460 nm).

[2] = test system: ERK; experiment: Signal transduction by multiplex bead array: ERK phosphorylation; format: cell-based; settings: comparing to LPS treatment alone (FIG. 4)
Excerpt: FIG. 4. […] Compound 12, a representative compound of the invention, was examined in term of signal transduction to explore how the new compounds exert their suppressive effect, using the multiplex bead array.
Using the multiplex bead array, we examined how the new compounds might exert their suppressive effect in term of signal transduction.

[3] = test system: OVA-induced AHR mouse model; experiment: Suppression of OVA-induced airway inflammation in vivo (IL-13 and IL-4 in BALF and lungs); settings: OVA-induced AHR experiment
Protocol: FIG. 8. […] The bronchoalveolar lavage fluid (BALF) from mice in the OAV-induced AHR experiment was examined forth IL-13 and IL-4 levels.
FIG. 9. […] The lungs from mice in the OAV-induced AHR experiment was examined for their IL-13 and IL-4 protein level.
FIG. 10. […] The lungs from mice in the OAV-induced AHR experiment was examined for their IL-13 and IL-4 mRNA levels.
(§1) For ovalbumin (OVA) challenge, mice were sensitized intraperitoneally (i.p.) with 50 μg of OVA with 2% alhydrogel adjuvant (InvivoGen). Mice were challenged three times with 50 μg of OVA on day 7 post-sensitization, either daily or every other day. Mice were sacrificed the day after the last OVA challenge. The scheme of the OT-1 adoptive transfer mouse model for examining the proliferation of CD8^+ T cells in adjuvanting OVA challenge is described in FIG. 13.
Upon exposure of the trachea, the lungs were lavaged twice with 1 mL of PBS supplemented with 2% fetal calf serum (FCS). BALF was pooled and bronchoalveolar (BAL) cells were pelleted by centrifugation and fixed onto cytospin slides. The slides were stained with Diff-Quik solution (Polysciences Inc) and BAL differential cell count was performed.
Using the Th2 OVA-induced AHR mouse model, we assessed the capability of selected compounds 8, 12, 18, and 27 in suppressing Th2 inflammation.

[4] = test system: CD8+ T cells in the spleen, OT-1 adoptive transfer mouse model; experiment: Th1 immune response in vivo (CD8+ T cell proliferation, OT-1 adoptive transfer mouse model); settings: OT-1 adoptive transfer mouse model (FIG. 13)
Protocol: FIG. 13. […] The adjuvancy capability of selected compounds 12 and 27 in vivo was assessed by their capability in promoting the proliferation of CD8^+ T cells in the spleen in the OT-1 adoptive transfer mouse model as described in the scheme.
as §1
Compounds 12 and 27 were injected into OT-1 mice (transgenic mice that express a TCR that is specific for an ovalbumin OVA peptide) to validate the Th1-biased immunomodulation property.

[5] = test system: splenocytes isolated from MyD88 KO mice; experiment: MyD88 dependency of cytokine induction (splenocytes from MyD88 KO mice in vitro); format: cell-based
Excerpt: FIG. 14. […] The dependency of the compounds of the invention on functional MyD88 for biological function was examined using the representative compound 12, with immune cells isolated from MyD88 knocked-out mice. […] IL-4 was not detectable with compound 12 treatment, indicating a Th1-biased property.
To determine whether the adjuvancy function of the representative compound 12 is MyD88-dependent or not, we performed experiments with immune cells isolated from MyD88 knocked-out (KO) mice. […] Data are dose-dependent and differences become more pronounced at the higher concentrations. […] Taken together, the results support that compound 12 adjuvancy function is MyD88-dependent.

[6] = bronchoalveolar lavage fluid (FIG. 8)

For CCCCCCCCCCCCNC(=O)C(COC1C(O)C(O)C(O)C2COC(=O)N21)NC(=O)CCCCCCCCCCC (centres unmarked) [Compound 12], the “hydrolysis of the glycolipid mimetic (free polysubstituted 2-oxa-3-oxoindolizidine detected by gas chromatography)” value [1] was “No traces of the free polysubstituted 2-oxa-3-oxoindolizidine”, the “phosphorylation of ERK” value [2] was “significantly reduced” and the “IL-4 level in BALF” value [3, 6] was “significantly suppressed”. For the same compound, the “IL-13 level in BALF” value [3, 6] was “significantly suppressed”, the “IL-4 mRNA level in lungs” value ([3]; lung mRNA (FIG. 10)) was “could significantly suppress” and the “IL-13 mRNA level in lungs” value ([3]; lung mRNA (FIG. 10)) was “significantly suppressed”. The “IL-4 protein level in lungs” value ([3]; lung protein (FIG. 9)) was “significantly suppressed”, the “IL-13 protein level in lungs” value ([3]; lung protein (FIG. 9)) was “significantly suppressed” and the “proliferation of CD8+ T cells in the spleen” value [4] was “significant CD8^+ T cell proliferation”. For the same compound, the “ability to induce IFNγ” value ([5]; splenocytes isolated from MyD88 KO mice (FIG. 14)) was “completely abrogated” and the IL-4 induction ([5]; splenocytes, MyD88 experiment (FIG. 14)) was “no IL-4 induction was observed”.
